Results from US20250179033A1 (priority 2021, published 2025).
Read-outs that look alike come from different tables or passages of the source.

Columns and labels:
[1] = test system: HIV-1 IIIB A17 variant (Y181C/K103N); assay: HIV inhibition assay in TZM-bl cells, A17 variant; type: cell-based
In short: (§1)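 TZM-bl cells with 15 μg/mL DEAE-dextran were infected with H9-grown HIV-1 IIIB, wild-type or A17 (Y181C/K103N), in the presence of compound (0.005% or 0.05% DMSO) for 48 h at 37 °C. Luciferase RLU was read after lysis. Toxicity was measured in parallel by CellTiter-Blue fluorescence.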

[2] = Mouse liver microsome stability; type: in vitro ADME
Protocol: (§2) Mouse/Human liver microsome stability: A liver microsome solution (197.5 μL, 1.27 mg/ml protein concentration) (Sekisui Xenotech, Kansas City, KS) was aliquoted into 1.1 ml tubes, to which 2.5 μL of positive control and compound stock solutions (100 μM in DMSO) were added. The tubes were vortexed gently, pre-incubated for 5 min at 37° C., then 50 μL of 5 mM NADPH or LM buffer (no NADPH buffer) was added into the tubes. For analysis, an aliquot of 15 μL was removed from each tube at 0, 5, 15, 30 and 60 min (without-NADPH reaction: 0, 30 and 60 min) and quenched with 300 μL of 25 ng/ml propranolol in acetonitrile. Samples were vigorously vortexed for 1 min and then centrifuged at 4,000 rpm for 15 min at 4° C. 100 μL of supernatant from each sample was transferred to 0.65 ml tubes for LCMS analysis. The amount of parent compound was determined on the basis of the peak area ratio (compound area to IS area) for each time point. Clearance rates were calculated by the equation: […]

[3] = Human liver microsome stability; type: in vitro ADME
Protocol: as §2

[4] = test system: HIV-1 IIIB (wild-type); assay: HIV inhibition assay in TZM-bl cells, wild-type; type: cell-based; conditions: Human immunodeficiency virus 1, IIIB; for IC50: read-out: IC50 (TZM, WT)
In short: as §1

[5] = in vitro; type: in vitro ADME, mouse
Protocol: Protein Binding in Plasma: The donor side of dialysis inserts were filled with 200 μL plasma (human and mouse; source BioDuro, San Diego, California, United States of America) containing 5 μM drug and 0.5% of DMSO and the receiver side of the dialysis inserts was filled with 350 μL of PBS buffer (100 mM, pH 7.4). The prepared dialysis apparatus was placed in a shaker (37° C., 100 rpm) for 5 hours. Two tubes with plasma containing 5 μM experimental compound were also prepared for stability test: one tube was placed in the […] for 5 hours and the other tube was placed in shaker ([…], 100 rpm) for 5 hours. Samples were collected from the donor and receiver sides of each dialysis insert. The same volume of blank plasma was added to buffer samples and blank buffer to plasma samples to make sure all sample mixtures contain 50% plasma and 50% buffer. 50 μL of each sample was mixed with 300 μL of acetonitrile containing 25 ng/ml internal standard (propranolol). All samples were vortexed for 1 minute and then centrifuged at 4000 rpm, 4° C. for 15 min. 100 μL of the supernatant was transferred to 0.65 ml tube for LCMS analysis. The amount of compound was determined on the basis of the peak area ratio (compound area to internal standard area) for the two sides, and protein binding is determined using the following equations: % Bound=100×([Area Ratio of Donor]5h*5−[Area Ratio of Receiver]5h)/([Area Ratio of Donor]5h*5). The percentage remaining at 37° C. after 5 hours was calculated on the basis of the amount measured at 0° C. after 5 hours.

[6] = Human immunodeficiency virus 1, IIIB, TZM-bl, read-out: IC50 (TZM, A17), Table 3, TZM-bl, ± SEM, minimum 6 replicates
[7] = Human immunodeficiency virus 1, IIIB, TZM-bl, read-out: IC50 (TZM, A17), Table 4, TZM-bl
[8] = Table 3, TZM-bl, ± SEM, minimum 6 replicates

| Compound | IC50 [1, 6] [nM] | IC50 [1, 7] [nM] | Mouse liver microsomes, stability in words [2] | Mouse liver microsomes CLint ([2]; mouse, liver microsomes, 1 μM) [μL/min/mg protein] | Human liver microsomes, stability in words [3] | Human liver microsomes CLint ([3]; human, liver microsomes, 1 μM) [μL/min/mg protein] | IC50 [4, 8] [nM] | IC50 ([4]; Table 4, TZM-bl) [nM] | Mouse plasma protein binding ([5]; 5 μM, dialysis 5 hours) [%] | activity against the A17 variant, in words [1] | EC50 ([1]; Human immunodeficiency virus 1, IIIB, TZM-bl, read-out: activity against the A17 double mutant (Y181C/K103N), EC50) [nM] | half-life at 1 μM ([2]; mouse, liver microsomes) [h] | microsomal CLint at 1 μM ([2]; mouse, liver microsomes) [µL/min/mg] | half-life at 1 μM ([3]; human, liver microsomes) [h] | microsomal CLint at 1 μM ([3]; human, liver microsomes) [µL/min/mg] | EC50 ([4]; text b494, FIG. 2F, read-out: antiviral activity against wildtype, EC50) [nM] | half-life at 5 μM ([5]; mouse, plasma) [h] | fraction unbound ([5]; mouse, plasma, pH 7.4, 5 μM, dialysis 5 hours, read-out: Mouse plasma protein binding) |
| --- | --- | --- | --- | --- | --- | --- | --- | --- | --- | --- | --- | --- | --- | --- | --- | --- | --- | --- |
| Nc1nc(Nc2ccc(Cl)cc2)nn1S(=O)(=O)c1ccc2ccccc2c1 [Compound 1, N3-(4-chlorophenyl)-1-(2-naphthylsulfonyl)-1,2,4-triazole-3,5-diamine] | > 1000 | > 1000 | protein, stable | 10.4 | protein, stable | 2.0 | 9.33 ± 2.27 | 9.33 | >99.9 | – | – | – | – | – | – | – | – | – |
| N#C/C=C/c1ccc2c(S(=O)(=O)n3nc(Nc4ccc(C#N)c(Cl)c4)nc3N)cccc2c1 [Compound 20, 4-[[5-amino-1-[[6-[2-cyanovinyl]-1-naphthyl]sulfonyl]-1,2,4-triazol-3-yl]amino]-2-chloro-benzonitrile] | 0.689 ± 0.143 | 45.4 | stable | – | stable | – | 0.263 ± 0.05 | 0.309 | – | retained potent activity | 1.86 | 2.07 | 11.1 | 0.897 | 25.8 | 0.22 | > 6.21 | < 0.001 |
